Publication PMC6467267 (Chemical research in toxicology, 2019)
Where two headings read alike, the source gives them in different places.

Assays:
[1] = molecular target: T1, CjIMPDH (Campylobacter jejuni, UniProt Q0P9J4); assay: biochemical; assay type: biochemical
[2] = molecular target: partially purified rat IMPDH; settings: mixed inhibition; cited from earlier work
[3] = molecular target: T1, CjIMPDH; assay: Product determination and stoichiometry of inhibition; assay type: biochemical
[4] = molecular target: TfIMPDH (Tritrichomonas foetus, UniProt P50097); assay: biochemical; assay type: biochemical
[5] = molecular target: T2, BaIMPDH (Bacillus anthracis, UniProt A0A6L8P2U9); assay: biochemical; assay type: biochemical
[6] = molecular target: T2, BaIMPDH; assay type: binding; settings: read-out: calculated value of Ki
[7] = molecular target: T2, BaIMPDH; assay type: biochemical
[8] = molecular target: human IMPDH2 (Homo sapiens, UniProt P12268); assay: IMPDH steady-state kinetics and inhibition; assay type: biochemical
[9] = molecular target: T2, BaIMPDH; assay type: biochemical; remark: listed apart in the source
[10] = molecular target: CpIMPDH (Cryptosporidium parvum, UniProt Q8T6T2); assay: biochemical; assay type: biochemical
[11] = molecular target: CjIMPDHΔS (IMPDH from C. jejuni, CBS domain V92-T195 deleted and replaced with G) (Campylobacter jejuni) (UniProt Q0P9J4); assay: crystal structure
[12] = read-out: Kis, OxMP, versus IMP, competitive, NAD+ 500 μM
[13] = read-out: Km, NAD, varying NAD+, saturating IMP, 25 °C, pH 8
[14] = uncompetitive substrate inhibition by NAD+

T2 sequence (A0A6L8P2U9 1-487): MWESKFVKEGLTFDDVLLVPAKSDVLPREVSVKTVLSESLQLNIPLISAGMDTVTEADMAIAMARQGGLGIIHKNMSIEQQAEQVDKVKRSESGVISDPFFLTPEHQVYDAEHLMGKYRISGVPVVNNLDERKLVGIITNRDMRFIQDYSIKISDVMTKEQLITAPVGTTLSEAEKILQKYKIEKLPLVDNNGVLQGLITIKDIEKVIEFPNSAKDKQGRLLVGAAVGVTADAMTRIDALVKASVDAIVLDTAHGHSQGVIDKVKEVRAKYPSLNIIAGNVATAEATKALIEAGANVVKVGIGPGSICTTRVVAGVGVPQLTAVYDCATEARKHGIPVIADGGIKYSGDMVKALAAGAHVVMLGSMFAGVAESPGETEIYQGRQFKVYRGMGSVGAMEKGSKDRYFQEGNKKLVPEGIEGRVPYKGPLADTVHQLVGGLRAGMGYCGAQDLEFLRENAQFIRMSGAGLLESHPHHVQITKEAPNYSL
Chain of CpIMPDH (Q8T6T2 whole entry, the tested form may be a part): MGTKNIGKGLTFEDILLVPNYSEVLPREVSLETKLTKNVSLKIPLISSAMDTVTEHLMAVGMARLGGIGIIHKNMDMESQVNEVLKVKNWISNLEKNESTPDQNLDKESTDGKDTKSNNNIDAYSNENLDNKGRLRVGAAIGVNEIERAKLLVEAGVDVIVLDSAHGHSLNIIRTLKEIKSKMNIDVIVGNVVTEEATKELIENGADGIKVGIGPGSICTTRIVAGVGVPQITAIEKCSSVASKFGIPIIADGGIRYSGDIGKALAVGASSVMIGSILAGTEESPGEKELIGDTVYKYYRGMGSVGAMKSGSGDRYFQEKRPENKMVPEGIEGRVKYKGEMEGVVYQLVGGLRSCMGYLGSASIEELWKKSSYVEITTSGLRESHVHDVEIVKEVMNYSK
Chain of TfIMPDH (P50097 whole entry): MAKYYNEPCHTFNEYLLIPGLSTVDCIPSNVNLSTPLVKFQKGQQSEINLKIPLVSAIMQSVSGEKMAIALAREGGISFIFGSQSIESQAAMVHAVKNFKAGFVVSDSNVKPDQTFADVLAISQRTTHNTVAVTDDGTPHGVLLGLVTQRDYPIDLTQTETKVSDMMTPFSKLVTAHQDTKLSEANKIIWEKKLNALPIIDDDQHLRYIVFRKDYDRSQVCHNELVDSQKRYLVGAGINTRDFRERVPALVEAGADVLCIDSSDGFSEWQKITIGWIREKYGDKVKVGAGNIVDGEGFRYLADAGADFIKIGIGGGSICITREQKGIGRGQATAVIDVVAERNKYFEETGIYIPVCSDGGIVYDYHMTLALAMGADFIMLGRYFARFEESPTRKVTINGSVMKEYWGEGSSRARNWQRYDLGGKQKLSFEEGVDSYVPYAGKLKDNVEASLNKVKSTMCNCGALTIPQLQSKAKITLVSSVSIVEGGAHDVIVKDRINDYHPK

In the case of `Nc1nc2c(ncn2[C@@H]2O[C@H](COP(=O)(O)O)[C@@H](O)[C@H]2O)c(=O)o1` [OxMP, oxanosine monophosphate], the “Kis, GMP /Kis, OxMP” value ([1]; ratio of Kis values) is given as 160, the Ki [1, 12] is given as 51 ± 6 nM and the Ki [2] is given as 1000 to 5000 nM. The “hydrolysis of OxMP to UrMP by the enzyme” value ([3]; enzyme and OxMP in a 1:1 ratio for 4 h, LC-MS) was “no free UrMP was detected”, the stoichiometry of inhibition ([3]; incubated 5 min, initial rates) was 1 OxMP/active site and the “Kis, GMP /Kis, OxMP” value ([4]; ratio of Kis values) was 140. The Ki [4, 12] was 170 ± 20 nM, the “Kis, GMP /Kis, OxMP” value [5] was 340 and the Ki ([5]; read-out: Kis, OxMP) was 340 ± 50 nM. For the same compound, the Ki [6] was 330 nM, the “hydrolysis of OxMP to UrMP by the enzyme” value [7] was “no free UrMP was detected” and the stoichiometry of inhibition [7] was 1 OxMP/active site. For the same compound, the “Kis, GMP /Kis, OxMP” value ([8]; ratio of Kis values) was 280, the Ki [8, 12] was 130 ± 20 nM and the “dissociation rate constant koff” value [9] was 0.0019 s⁻¹. For the same compound, the “Kis, GMP /Kis, OxMP” value ([10]; ratio of Kis values) was 240 and the Ki [10, 12] was 90 ± 10 nM.
“CjIMPDHΔS (IMPDH from C. jejuni, CBS domain V92-T195 deleted and replaced with G) (from UniProt Q0P9J4) (enzyme)” showed a stoichiometry N [11] of 4.
Work on `Nc1nc2c(ncn2[C@@H]2O[C@H](COP(=O)(O)O)[C@@H](O)[C@H]2O)c(=O)[nH]1` [GMP, guanosine 5’-monophosphate, reference compound] yielded a Ki [1] of 8000 ± 900 nM, a Ki [4] of 24000 ± 2000 nM and a Ki [5] of 115000 ± 7000 nM. For the same compound, the Ki [10] was 21000 ± 1000 nM.
In the case of `NC(=O)c1ccc[n+]([C@@H]2O[C@H](COP(=O)([O-])OP(=O)(O)OC[C@H]3O[C@@H](n4cnc5c(N)ncnc54)[C@H](O)[C@@H]3O)[C@@H](O)[C@H]2O)c1` [NAD], the Km [1, 13] is reported as 66 ± 5 µM, the “Kii, NAD” value [1, 14] is reported as 4.1 ± 0.3 mM and the Km [4, 13] is reported as 80 ± 3 µM. For the same compound, the “Kii, NAD” value [4, 14] was 5.4 ± 0.3 mM, the “Kii, NAD” value [5] was 8.1 ± 0.5 mM and the Km ([5]; read-out: Km, NAD, pH 8) was 700 ± 40 µM. For the same compound, the Km [8, 13] was 7 ± 1.7 µM, the “Kii, NAD” value [8, 14] was 0.49 ± 0.12 mM and the Km [10, 13] was 45 ± 3 µM. For the same compound, the “Kii, NAD” value [10, 14] was 6.5 ± 0.5 mM.
